Test results published in US20030188344A1 (priority 2000, published 2003).
“Also recorded” adds a separate entry of the source.

How the values were obtained:
[1] = test system: vir gene expression in wild-type strain A348; assay: vir induction assay, β-galactosidase reporter, wild-type strain; type: cell-based, A. tumefaciens; details: wild-type A348/pSW209
Experimental: (§1) vir Induction Assay. A. tumefaciens strains were grown overnight at 27° C. to an optical density of about 0.3-0.6 at 600 nm (OD600) in LB medium supplemented win appropriate antibiotics. Cells were then pelleted by centrifugation and resuspended to an OD600 of 0 1 per ml in sterilized induction medium (ABIM. pH 5.5) supplemented with either 1% glucose or 1% glycerol with or without 0.1% arabinose (w/v). The verious phenolic compounds tested were dissolved in a minimal amount of DMSO in water as mM stocks, and diluted with ABIM to the desired concentration (final DMSO concentration was no greater than 0.1%). The bacteria were incubated with at 28° C. for 8-16 hours and subsequently assayed for β-galactosidase activity by the method of Miller, 1972. ED50 values for the inducers evaluated were estimated from such dose response plots. Each assay value reported is the mean of three replicates; error bar indicates one standard deviation from the mean. Data are representative of three similar independent experiments.

[2] = test system: vir gene expression in hypersensitive mutants (AB140, AB147); assay: vir induction assay, β-galactosidase reporter, phenol hypersensitive mutants; type: cell-based, A. tumefaciens; details: for vir inducing activity / hypersensitivity in mutants: hypersensitive mutants, e.g. AB140, versus wild-type
Experimental: as §1
To ensure that the mutants hypersensitive to AS were a result of a change in the vir gene induction pathway rather than a mutation in the reporter plasmid pAC2, other methods to analyze vir gene induction and the virulence response were investigated. First, all nine mutants were transformed with pSW209 carrying a virB::lacZ reporter construct. The β-galactosidase activities of all strains were hypersensitive in an AS dose-response study. The observed changes are not due to some artifact of the reporter plasmids as the expression of VirB10, one of the proteins of the virB operon on its Ti plasmid, in cells of AB140 was detectable after induction with 0.3 μM AS. Wild-type cells required 1 μM AS to produce detectable VirB10. Thus, the mutants are hypersensitive to AS when assaying either the virB^P/nptII reporter, the virB::lacZ reporter, or directly assaying expression of VirB10 from the native viral promoter on the Ti plasmid.

vir gene expression = vir gene expression inhibition, β-galactosidase (lacZ under vir promoter); type: cell-based, A. tumefaciens
Experimental: Vir Induction Assay. A. tumefaciens strains were grown overnight at 27° C. to an OD of 0.3-0.6 in LB medium supplemented with appropriate antibiotics. Cells were then pelleted by centrifugation and resuspended to an OD of 0.1 per ml in sterilized induction medium (ABIM, pH 5.5) supplemented with either 1% glucose or 1% glycerol. The various inducer and Inhibitor compounds tested were dissolved in a minimal amount of DMSO in water as mM stocks, and diluted with ABIM to the desired concentration (final DMSO concentration was no greater than 0.1%). The bacteria were incubated with at 28° C. for 8-16 hr and subsequently assayed for β-galactosidase activity by the method of Miller (1986). IC50 values for the Inhibitors evaluated were estimated from such dose response plots. Each assay value reported is the mean of three replicates; error bar indicates one standard deviation from the mean. Data are representative of three similar independent studies.
The capacity of 1 to inhibit vir gene expression was tested by monitoring β-galactosidase activity in an A. tumefaciens strain carrying wild-type vir induction genes and a lacZ gene under the control of a vir promoter (Hess et al., 1991). […] A more precise test for specificity was available via the utilization of a plasmid containing a virA gene, the putative AS receptor, which contitutively expressed the vir genes in the absence of AS. […] Therefore, the inhibition by 1 occurs upstrean, of VirA activation.

[3] = test system: A. tumefaciens strain A348/pAC2 and AB140/pAC2; assay: kanamycin resistant growth with pAC2 (virB promoter/nptII); type: cell-based; details: for survival on induction plates plus kanamycin: A348/pAC2, 40 μg/ml kanamycin; for kanamycin resistant growth of AB140 compared with wild-type (inducer sensitivity): liquid medium, AB140/pAC2 vs A348/pAC2 (FIG. 9)
Experimental: Mutant Selection. […] Phenolic hypersensitive mutants were selected as follows. Individual colonies of A348/pAC2 were grown overnight in LB broth plus spectinomycin, and the progeny from each colony kept separate to ensure that each mutation was an individual event, not part of a clonal population. The bacteria were subsequently washed in ABIM medium, resuspended to an OD600 of approximately 0.1 and induced overnight in ABIM media plus 100 μM AS. The next day the cells had grown to an approximate OD600 of 1.0 and 2×10^5 to 2×10^6 bacteria were plated onto plates confining ABIM medium containing 10 μM AS and 40 μg/ml kanamycin. Colonies that grew on this selection medium were subsequently assayed for growth on plates containing kanamycin but no phenolic. Colonies that grew under these conditions are constitutive for kanamycin resistance and were not characterized further, while colonies that couldn't survive in this screen were characterized further.
The kanamycin resistance test of selected colonies in response to different doses of phenol was done in the following manner: after one night of induction in ABIM over a range of inducer concentrations, as described above, the bacteria were washed and subcultured into ABIM at a starting OD600 of approximately 0.1. The ABIM included phenolics at a range of concentrations between 0.1-1000 μM. At each concentration of inducer three cultures have kanamycin at a concentration of 20 μg/mL, while one culture has no kanamycin. After overnight culture the OD600 is determined and kanamycin resistant growth as a percentage of control is determined using the following calculation: [formula]

VirB10 expression = assay: VirB10 immunoblot; type: cell-based, A. tumefaciens
Experimental: Immunoblot. Cultures of different strains were induced overnight in ABIM containing 1% glycerol and 0.1% arabinose and varying phenolic concentrations. Samples from each culture, containing an equivalent OD600, were denatured by boiling in sample buffer for 3-10 minutes, and 10 μL from each sample was loaded onto 10% acrylamide gels and separated via SDSpolyacrylamide gel electrophoresis (PAGE). Proteins were transferred from the acrylamide gel to nitrocellulose purchased from Schleicher and Schell (Keene, N. H.) by electrotransfer. VirB 10 expression was examined using immunoblot procedures and antibodies described in Beaupre et al., 1997.

[4] = test system: leaf explants of Nicotiana tabacum cv Havana 425; assay: tobacco leaf tumor (virulence) assay
Experimental: Virulence Assays The capacity of various strains of A. tumefaciens to induce tumors on leaf explants of Nicotiana tabacum cv Havana 425 was tested as described previously. Banta et al., 1994.
In this assay, bacteria and leaf explants are co-cultivated for two days at varying levels of AS and then transferred to antibiotic containing medium that stops bacterial growth but allows plant tumor growth. Banta et al., 1994. In the case of wild-type strain A348, some tumor formation is observed on the leaf explants co-cultivated in the absence of AS in the co-cultivation, as expected because of xenognostic phenols released from the wounded cells (FIG. 10). […] Importantly, the maximum number of tumors formed by both the wild-type strain and AB140 was approximately the same, consistent with the observation that AB140's hypersensitivity is not a result of simple overexpression of the vir genes.

[5] = test system: VirA expression by native PvirA; details: with AS induction; cited from earlier work
occ regulon = occ regulon induction (specificity control); type: cell-based, A. tumefaciens; details: same plasmid; data not shown
physchem = type: physicochemical; details: buffer
Experimental: Curiously, 1 appears the most hydrolytically labile of this class of structures, with a measured t1/2<4 hr at pH 5.5, and […] at pH 7. […] Moreover, from estimates of the surface area per seedling, the concentration of 1 around the radicle of one-week-old maize seedlings should be between […] and 10 mM, depending on whether a 10 μ or a 100 μ volume element is used to define the surface hydration. […] This inhibitory zone readily explains the observed difficulty transforming this organ with the bacterium.

COc1cc([C@@H]2C[C@H]2CO)ccc1O (relative stereo) [(+)-trans-CP, trans-[3-(4-Hydroxy-3-methoxy-phenyl)-cyclopropyl]methanol]
vir inducing activity (virB::lacZ β-galactosidase) [1]: virtually all the activity of the trans racemate; also recorded: active | vir inducing activity / hypersensitivity in mutants [2]: all the inducing activity of the racemate

COc1ccc2[nH]c(=O)oc2c1 [6-methoxy-2H-benzoxazolin-2(3H)-one]
activity of decomposition product (vir gene expression; under the assay conditions): inactive

COC(=O)/C=C/c1cc(OC)c2c(c1)C(C(=O)OC)C(c1ccc(O)c(OC)c1)O2 [(2R,3R)-(−)-trans-DDF, trans-dehydroferulate dimethylester, reference compound]
vir inducing activity (virB::lacZ β-galactosidase) [1]: all the inducing activity of the racemic mixture | vir inducing activity (virB::lacZ β-galactosidase) ([1]; listed as (−)-trans-DDF): active

COc1cc(C(C)=O)cc(OC)c1O [AS, Acetosyringone]
sensitivity to AS compared with wild-type strain A348 ([2]; AB140, 0.1% arabinose present in induction medium): increased | AS concentration for response compared with wild-type ([2]; AB147 class, absence of arabinose): half-log lower concentration | vir inducing activity / hypersensitivity in mutants [2]: hypersensitive | survival on induction plates plus kanamycin ([3]; 30 μM AS): killed | survival on induction plates plus kanamycin ([3]; 100 μM AS): survive | kanamycin resistant growth of AB140 compared with wild-type (inducer sensitivity) [3]: one-half log lower concentration | AS concentration giving detectable VirB10 (VirB10 expression; cells of AB140): 0.3 µM | AS concentration required to produce detectable VirB10 (VirB10 expression; wild-type cells): 1 µM | AS concentration for maximal capacity to induce tumors, relative to wild-type ([4]; hypersensitive mutant AB140 (FIG. 10)): log order lower concentration | number of tumors formed per infected leaf explant ([4]; wild-type strain A348, increasing phenol in co-cultivation medium (FIG. 10)): significantly increased | induction of VirA expression by native PvirA [5]: ~8 fold

COc1cc(C(C)=O)ccc1O [AV, acetovallinone]
kanamycin resistant growth of AB140 compared with wild-type (inducer sensitivity) [3]: not hypersensitive

COc1cc2c(c(OC)c1O)CCC2=O [D-indanone, 5-hydroxy-4,6-dimethoxyindanone]
vir inducing activity (virB::lacZ β-galactosidase) [1]: little changed | vir inducing activity / hypersensitivity in mutants [2]: hypersensitive

COc1c(O)ccc2c1CCC2=O [E-indanone, 5-hydroxy-4-methoxy-1-indanone]
vir inducing activity (virB::lacZ β-galactosidase) [1]: equivalent activity | vir inducing activity / hypersensitivity in mutants [2]: hypersensitive

COc1cc2c(cc1O)CCC2=O [Z-indanone, 5-hydroxy-6-methoxy-1-indanone]
vir inducing activity (virB::lacZ β-galactosidase) [1]: equivalent activity

COc1cc(C2CC2CO)ccc1O (stereo not drawn) [cis-CP]
vir inducing activity (virB::lacZ β-galactosidase) [1]: equivalent activity

COc1ccc2c(c1)OC(O)C(=O)N2OC (centres unmarked) [compound 1]
actual IC50 (vir gene expression; based on decomposition rates during the 8 hr assay period): nanomolar range | inhibition of vir gene expression (β-galactosidase activity) (vir gene expression; expression induced by 100 uM acetosyringone, wild-type vir induction genes): strongly inhibits | effect on constitutively activated VirA strain (FIG. 2) (vir gene expression; virA G665D expressing vir genes in the absence of AS): functions independently | effect on induction of the occ regulon (occ regulon): unaffected | half-life (physchem; pH 5.5): < 240 min | half-life (physchem; pH 7): ~10 min
